# In the NIST ThermoML archive (doi:10.1021/je3000876):
# ± gives the expanded uncertainty stated by the source.
# Key:
# [1] = for viscosity / mass density: 101.33 kPa, Liquid; for viscosity: Cone and plate viscometry; for mass density: Vibrating tube method
# [2] = refractive index (Na D-line) (dimensionless); details: 101.33 kPa, Liquid, Standard Abbe refractometry
compound,measurement,setting,value
NC(=O)Cn1cc[n+](CCCCn2cc[n+](CC(N)=O)c2)c1.O=S(=O)([N-]S(=O)(=O)C(F)(F)F)C(F)(F)F.O=S(=O)([N-]S(=O)(=O)C(F)(F)F)C(F)(F)F,viscosity,[1]; 298.15 K,8689 ± 1200 mPa·s
same,mass density,[1]; 298.15 K,1590.17 ± 14 kg/m3
same,viscosity,[1]; 303.15 K,4730 ± 580 mPa·s
same,mass density,[1]; 303.15 K,1585.41 ± 14 kg/m3
same,viscosity,[1]; 308.15 K,3285 ± 370 mPa·s
same,mass density,[1]; 308.15 K,1580.62 ± 14 kg/m3
same,viscosity,[1]; 313.15 K,2365 ± 250 mPa·s
same,mass density,[1]; 313.15 K,1575.98 ± 14 kg/m3
same,viscosity,[1]; 318.15 K,1824 ± 180 mPa·s
same,mass density,[1]; 318.15 K,1572.04 ± 14 kg/m3
same,viscosity,[1]; 323.15 K,1517 ± 140 mPa·s
same,mass density,[1]; 323.15 K,1567.22 ± 13 kg/m3
same,viscosity,[1]; 328.15 K,1323 ± 120 mPa·s
same,mass density,[1]; 328.15 K,1562.31 ± 13 kg/m3
same,viscosity,[1]; 333.15 K,1221 ± 110 mPa·s
same,mass density,[1]; 333.15 K,1557.66 ± 13 kg/m3
same,viscosity,[1]; 338.15 K,1129 ± 96 mPa·s
same,mass density,[1]; 338.15 K,1552.61 ± 13 kg/m3
same,viscosity,[1]; 343.15 K,1098 ± 93 mPa·s
same,mass density,[1]; 343.15 K,1548.03 ± 13 kg/m3
same,Glass transition temperature,"[1]; Glass, DTA",-40 ± 6 °C
same,refractive index,[2]; 298.15 K,1.4546 ± 0.0011
same,refractive index,[2]; 303.15 K,1.4532 ± 0.0011
same,refractive index,[2]; 308.15 K,1.4518 ± 0.0011
same,refractive index,[2]; 313.15 K,1.4504 ± 0.0011
same,refractive index,[2]; 318.15 K,1.4491 ± 0.0011
same,refractive index,[2]; 323.15 K,1.4477 ± 0.0011
same,refractive index,[2]; 328.15 K,1.4464 ± 0.0011
same,refractive index,[2]; 333.15 K,1.4451 ± 0.0011
same,refractive index,[2]; 338.15 K,1.4439 ± 0.0011
same,refractive index,[2]; 343.15 K,1.443 ± 0.0011
